For experiment [1], the target named is T1, carboxylesterase (CaE, EC 3.1.1.1, from porcine liver) (Sus scrofa, UniProt Q29550).
T1 sequence (Q29550 19-566): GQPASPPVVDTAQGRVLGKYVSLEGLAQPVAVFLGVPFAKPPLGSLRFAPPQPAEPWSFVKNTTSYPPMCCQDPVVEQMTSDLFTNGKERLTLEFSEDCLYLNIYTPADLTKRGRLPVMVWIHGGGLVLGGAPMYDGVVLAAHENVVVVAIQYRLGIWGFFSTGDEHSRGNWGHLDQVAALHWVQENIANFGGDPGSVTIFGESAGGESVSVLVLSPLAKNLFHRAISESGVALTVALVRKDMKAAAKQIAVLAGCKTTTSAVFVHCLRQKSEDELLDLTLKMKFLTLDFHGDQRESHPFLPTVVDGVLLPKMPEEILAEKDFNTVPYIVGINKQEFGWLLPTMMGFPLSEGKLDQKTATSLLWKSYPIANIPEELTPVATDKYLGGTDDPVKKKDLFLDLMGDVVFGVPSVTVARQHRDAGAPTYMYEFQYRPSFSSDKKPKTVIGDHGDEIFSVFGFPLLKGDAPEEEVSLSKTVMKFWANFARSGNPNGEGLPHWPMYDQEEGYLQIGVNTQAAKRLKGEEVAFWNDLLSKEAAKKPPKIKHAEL
Nature of the experiment: In vitro CaE inhibition (4-nitrophenyl acetate hydrolysis). It counts as biochemical. The settings on record: pH 8.0, 25 °C, 10 min preincubation, read-out: IC50 (μM) ± SEM CaE. The method, then: (§1) Acetylcholinesterase (AChE, EC 3.1.1.7, from human erythrocyte), butyrylcholinesterase (BChE, EC 3.1.1.8, from equine serum), carboxylesterase (CaE, EC 3.1.1.1, from porcine liver), acetylthiocholine iodide (ATCh), butylthiocholine iodide (BTCh), 5,5´-dithiobis-(2-nitrobenzoic acid) (DTNB), 4-nitrophenyl acetate (4-NPA), were purchased from Sigma-Aldrich (Germany).
The activity of CaE was determined spectrophotometrically by the release of 4-nitrophenol at 405 nm[51]. The assay solution consisted of 0.1 M K/Na phosphate buffer pH 8.0, 25 °C with the addition of 1 mM 4-nitrophenyl acetate and 0.02 unit/mL of CaE. Assays were carried out with a blank containing all components except CaE.
(§2) The tested compounds were dissolved in DMSO; the incubation mixture contained 2% of the solvent. […] The test compounds were added to the assay solution and preincubated at 25 °C with the enzymes for 10 min followed by the addition of substrate. A parallel control was made for the assay solution with no inhibitor. Measurements were performed in a BioRad Benchmark Plus microplate spectrophotometer (France). Each experiment was performed in triplicate. The results were expressed as the mean ± SEM. The reaction rates in the presence and absence of inhibitor were compared, and the percent of residual enzyme activity due to the presence of test compounds was calculated.

The target of experiment [2] is T2, butyrylcholinesterase (BChE, EC 3.1.1.8, from equine serum) (Equus caballus, UniProt P81908).
T2 construct: butyrylcholinesterase (BChE, EC 3.1.1.8, from equine serum); purchased Sigma-Aldrich (Germany); host or cells: equine serum
T2 sequence (P81908 whole entry): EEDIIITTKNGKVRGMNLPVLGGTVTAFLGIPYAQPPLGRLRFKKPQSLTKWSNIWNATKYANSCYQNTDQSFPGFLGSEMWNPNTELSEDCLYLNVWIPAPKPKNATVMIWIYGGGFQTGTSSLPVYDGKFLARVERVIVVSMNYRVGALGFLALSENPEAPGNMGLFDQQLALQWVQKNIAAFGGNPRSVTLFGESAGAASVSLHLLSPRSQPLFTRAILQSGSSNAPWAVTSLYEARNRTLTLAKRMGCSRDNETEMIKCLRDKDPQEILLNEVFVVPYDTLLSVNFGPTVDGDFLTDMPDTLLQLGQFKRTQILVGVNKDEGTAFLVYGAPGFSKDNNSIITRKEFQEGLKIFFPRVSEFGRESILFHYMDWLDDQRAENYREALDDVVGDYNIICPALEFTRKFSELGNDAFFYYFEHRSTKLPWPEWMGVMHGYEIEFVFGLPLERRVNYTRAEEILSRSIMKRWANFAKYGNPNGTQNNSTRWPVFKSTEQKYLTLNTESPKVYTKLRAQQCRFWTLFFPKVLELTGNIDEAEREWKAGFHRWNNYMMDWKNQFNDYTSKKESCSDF
Nature of the experiment: biochemical. Format: biochemical. The settings on record: BChE, means ± SEM, at least three experiments; for Ki: read-out: Ki (competitive inhibition constant). The method, then: The test compounds were preincubated with the enzymes at 25 °C for 10 min, followed by the addition of the substrates. Parallel controls were made for an assay of the rate of hydrolysis of the same concentrations of substrates in the solutions with no inhibitor. The kinetic parameters of substrate hydrolysis were determined. Measurements were performed in a BioRad Benchmark Plus microplate spectrophotometer (France). Each experiment was performed in triplicate.

For experiment [3], the target named is T3, ifenprodil binding site of NMDA receptor (NR2B subunit containing) (Rattus norvegicus, UniProt P35439+Q00960).
T3 construct: A membrane preparation of hippocampus for radioligand analysis was prepared; from tissue; host or cells: rat hippocampal membranes
T3 sequence (Q00960 27-1482, other chains not shown): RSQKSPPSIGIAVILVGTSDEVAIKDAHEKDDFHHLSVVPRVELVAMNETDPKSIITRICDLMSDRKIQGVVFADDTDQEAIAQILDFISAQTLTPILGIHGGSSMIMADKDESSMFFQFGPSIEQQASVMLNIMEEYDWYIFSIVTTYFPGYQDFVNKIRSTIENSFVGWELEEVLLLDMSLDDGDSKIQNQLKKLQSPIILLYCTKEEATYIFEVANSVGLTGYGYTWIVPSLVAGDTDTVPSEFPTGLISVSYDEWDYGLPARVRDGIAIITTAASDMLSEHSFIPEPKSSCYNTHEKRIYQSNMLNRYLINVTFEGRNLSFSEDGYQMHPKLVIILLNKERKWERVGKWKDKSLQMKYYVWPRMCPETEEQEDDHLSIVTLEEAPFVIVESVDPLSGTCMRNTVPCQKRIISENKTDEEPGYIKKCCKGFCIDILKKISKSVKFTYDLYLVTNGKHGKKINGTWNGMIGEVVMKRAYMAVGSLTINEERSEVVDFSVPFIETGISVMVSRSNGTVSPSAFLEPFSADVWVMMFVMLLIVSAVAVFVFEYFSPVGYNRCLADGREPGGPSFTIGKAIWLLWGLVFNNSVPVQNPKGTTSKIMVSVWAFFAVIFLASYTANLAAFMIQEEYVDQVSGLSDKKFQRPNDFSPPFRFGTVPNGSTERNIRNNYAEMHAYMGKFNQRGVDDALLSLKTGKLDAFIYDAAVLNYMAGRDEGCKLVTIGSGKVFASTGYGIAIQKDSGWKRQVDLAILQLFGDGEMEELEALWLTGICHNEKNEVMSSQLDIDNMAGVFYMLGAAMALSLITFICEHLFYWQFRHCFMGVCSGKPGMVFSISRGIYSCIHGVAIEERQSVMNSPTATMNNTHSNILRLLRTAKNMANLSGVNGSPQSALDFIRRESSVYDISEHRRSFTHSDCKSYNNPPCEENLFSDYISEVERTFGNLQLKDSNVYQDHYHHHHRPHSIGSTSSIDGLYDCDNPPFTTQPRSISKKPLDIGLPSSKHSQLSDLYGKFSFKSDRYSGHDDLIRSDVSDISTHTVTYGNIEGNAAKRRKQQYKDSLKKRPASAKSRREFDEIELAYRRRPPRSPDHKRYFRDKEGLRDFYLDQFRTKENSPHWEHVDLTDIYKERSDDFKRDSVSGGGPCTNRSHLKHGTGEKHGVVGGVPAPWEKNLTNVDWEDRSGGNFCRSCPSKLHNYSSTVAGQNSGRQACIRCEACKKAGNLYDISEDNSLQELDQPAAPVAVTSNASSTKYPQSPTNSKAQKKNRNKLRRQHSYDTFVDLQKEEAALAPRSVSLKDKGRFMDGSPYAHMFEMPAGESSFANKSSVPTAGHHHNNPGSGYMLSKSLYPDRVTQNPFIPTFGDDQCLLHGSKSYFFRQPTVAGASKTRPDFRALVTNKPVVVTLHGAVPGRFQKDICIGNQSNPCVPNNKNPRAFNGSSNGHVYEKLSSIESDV
Nature of the experiment: Radioligand binding, [3H]ifenprodil site of NMDA receptor, hippocampal membranes. The settings on record: rat hippocampal membranes; for % of [3H]ifenprodil blockade at 100 μM of compound: 100 μM compound; for IC50: read-out: [3H]ifenprodil, IC50. The method, then: (§3) Effect of test compounds on the radioligand binding to NMDA receptors was determined by using a modified method as reported earlier by Zhou L-M and coworkers. Two radioactive ligands were used: [^3H] MK-801 (dizocilpine) with a specific activity of 210 Ci/mmol binding to all isolated NMDA receptors, and [^3H] ifenprodil with a specific activity of 79 Ci/mmol binding only to NMDA receptors containing the NR2B subunit.
(§4) A membrane preparation of hippocampus for radioligand analysis was prepared by the techniques described previously. The obtained membrane pellet was resuspended in a work buffer (5 mM HEPES/4.5 mM Tris buffer, pH 7.6) in a ratio of 1:5, and stored in liquid nitrogen. The reaction mixture (the final volume of 0.5 ml) contained 200 μl of the working buffer, 50 μl of 50 nM radioligand solution and 250 μl of the membrane suspension. Nonspecific binding was determined in the presence of 50 μl of […] of unlabeled ligand.
(§5) For binding study, the reaction mixture was incubated at room temperature for 2 hours. After incubation, the samples were filtered through the glass-fiber filters GF/B (Whatman), washed with the work buffer, dried and transferred to scintillation vials to which 5 ml of scintillation fluid was added containing 4g diphenyl oxazole (PPO), 0.2g diphenyloxazoil benzene (POPOP) and 1 liter of toluene. Radioactivity was determined in the scintillation counter TriCarb2800 TR (PerkinElmer, Packard, USA) with counting efficiency of about 65%.
(§6) Investigation of the effect of the tested compounds on the binding of [^3H]

In experiment [4] the target is T2, butyrylcholinesterase (BChE, EC 3.1.1.8, from equine serum). Nature of the experiment: biochemical. Format: biochemical. The conditions noted are these: equine serum BChE; pH 7.5, 25 °C, 10 min preincubation; read-out: IC50 (μM) ± SEM BChE. The method, then:
as §1
(§7) AChE and BChE activities were measured by the method of Ellman and coworkers as described earlier. The assay solution consisted of 0.1 M K/Na phosphate buffer pH 7.5, 25 °C with the addition of 0.33 mM DTNB, 0.02 unit/mL of AChE or BChE and 1 mM of substrate (ATCh or BTCh, respectively). Assays were carried out with a blank containing all components except ATCh and BTCh in order to account for non-enzymatic reaction.
as §2

The target in experiment [5] is T4, Acetylcholinesterase (AChE, EC 3.1.1.7, from human erythrocyte) (Homo sapiens, UniProt P22303).
T4 construct: Acetylcholinesterase (AChE, EC 3.1.1.7, from human erythrocyte); purchased Sigma-Aldrich (Germany); host or cells: human erythrocytes
T4 sequence (P22303 other isoform, or with tags, fused parts or gaps): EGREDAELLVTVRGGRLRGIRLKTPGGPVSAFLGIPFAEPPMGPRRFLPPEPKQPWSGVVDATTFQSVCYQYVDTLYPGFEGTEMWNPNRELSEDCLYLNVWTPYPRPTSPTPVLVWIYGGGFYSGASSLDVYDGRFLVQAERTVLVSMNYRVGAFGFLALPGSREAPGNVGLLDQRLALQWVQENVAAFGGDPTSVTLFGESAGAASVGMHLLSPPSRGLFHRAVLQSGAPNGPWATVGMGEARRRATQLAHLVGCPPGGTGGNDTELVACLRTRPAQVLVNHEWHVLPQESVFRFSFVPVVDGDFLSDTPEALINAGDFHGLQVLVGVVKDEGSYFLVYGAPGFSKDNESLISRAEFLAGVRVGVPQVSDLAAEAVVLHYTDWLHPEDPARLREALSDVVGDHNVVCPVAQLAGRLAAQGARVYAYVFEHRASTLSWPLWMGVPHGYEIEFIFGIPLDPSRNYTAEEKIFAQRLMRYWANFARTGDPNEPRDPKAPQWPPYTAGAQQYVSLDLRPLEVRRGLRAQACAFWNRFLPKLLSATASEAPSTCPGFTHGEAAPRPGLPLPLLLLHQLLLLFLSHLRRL
Briefly: biochemical. Format: biochemical. The settings on record: human erythrocyte AChE; pH 7.5, 25 °C, 10 min preincubation; read-out: IC50 (μM) ± SEM AChE. The method, then:
as §1, §7, §2

The target of experiment [6] is T5, МК-801 binding site of NMDA receptor (Rattus norvegicus, UniProt P35439).
T5 construct: A membrane preparation of hippocampus for radioligand analysis was prepared; from tissue; host or cells: rat hippocampal membranes
Nature of the experiment: Radioligand binding, [3H]MK-801 site of NMDA receptor, hippocampal membranes. The settings on record: rat hippocampal membranes; for % of [3H]МК-801 blockade at 100 μM of compound: 100 μM compound; for IC50: read-out: [3H]МК-801, IC50. The method, then: as §3, §4, §5, §6

SMILES strings stand for the structures.

This note sets out measurements from paper PMC4642525, “Conjugates of γ-Carbolines and Phenothiazine as new selective inhibitors of butyrylcholinesterase and blockers of NMDA receptors for Alzheimer Disease” (Scientific Reports, 2015).

With `CCc1ccc2c(c1)c1c(n2CCC(=O)N2c3ccccc3Sc3ccccc32)CCN(C)C1` [C-1g], the IC50 in experiment [1] is above 200 µM; in experiment [3] it was 15.4 ± 3.9 µM; in experiment [4], 1.36 ± 0.06 µM; in experiment [5] it was above 100 µM; in experiment [6], 13.2 ± 2.2 µM. For the same compound, in experiment [2], the “αKi (non-competitive inhibition constant)” value was found to be 0.99 ± 0.04 µM. Moreover, the Ki in experiment [2] is 0.46 ± 0.02 µM. For the same compound, the “% of [3H]ifenprodil blockade at 100 μM of compound” value in experiment [3] is recorded as 64.6 ± 5.2%. Moreover, the “% of [3H]МК-801 blockade at 100 μM of compound” value in experiment [6] is on record as 89.4 ± 4.6%.

As for `CN1CCc2c(c3cc(F)ccc3n2CCC(=O)N2c3ccccc3Sc3ccccc32)C1` [C-1c], the IC50 in experiment [1] was above 200 µM; in experiment [3], 55.1 ± 5.8 µM; in experiment [4], 1.79 ± 0.28 µM; in experiment [5], above 200 µM; in experiment [6], 17.7 ± 2.6 µM. Also, the “αKi (non-competitive inhibition constant)” value in experiment [2] came out at 1.27 ± 0.41 µM. Also, the Ki in experiment [2] worked out at 0.48 ± 0.06 µM. Also, the “% of [3H]ifenprodil blockade at 100 μM of compound” value in experiment [3] was determined as 50.2 ± 5.2%. Moreover, the “% of [3H]МК-801 blockade at 100 μM of compound” value in experiment [6] is 78.7 ± 1.4%.
